Source: patent publication EP0193414A2, “Liposomes, process for their preparation and compositions containing them” (Fluck, David John, priority 1985, dated 1986)

Columns and labels:
[1] = depot formation at the injection site after intramuscular injection in goats; type: in vivo, goat
Method: An injection site depot from another goat to which free Samorin in aqueous solution was administered by the same route and at the same dosage as that from this Example was noted to be more diffuse.
Liposomal Berenil was recovered from each depot.

[2] = test system: trypanosomiasis; conditions: free drug, cited from earlier work; for period of protection (prophylaxis): Samorin at 0.5-1.0 mg/kg, dependent on dosage and tsetse fly challenge
[3] = cited from earlier work; for side effects: free drug, 1 mg/kg for homidium and 0.5-1.0 mg/kg for Samorin
[4] = free drug in aqueous solution; cited from earlier work

Structure (SMILES) | period of protection (prophylaxis) [2] | side effects [3] | further results
N=C(N)c1ccc(N=NNc2ccc(C(=N)N)cc2)cc1 [Berenil, diminazene aceturate] | a few days only | – | depot at the injection site ([1]; goat, intramuscular, 3.5 mg/kg live weight (calculated as active ingredient)): no indication of a depot
CC[n+]1c(-c2ccccc2)c2cc(N)ccc2c2ccc(N)cc21 [Homidium chloride, 2,7-diamino-9-phenyl-10-ethylphenanthridinium] | ≤ 60 days | – | –
CC[n+]1c(-c2ccccc2)c2cc(NN=Nc3cccc(C(=N)N)c3)ccc2c2ccc(N)cc21.Cl.[Cl-] [Samorin, 8-[(m-amidinophenylazo)amino]-3-amino-5-ethyl-6-phenylphenanthridinium chloride hydrochloride] | 60 to 120 days | reaction by the injected tissue to the drug | depot at the injection site ([1]; goat culled 15 days after intramuscular administration, 1 mg/kg live weight Samorin): more diffuse; dosage with therapeutic trypanocidal action [2]: 0.25 mg/kg
CC[n+]1c(-c2ccccc2)c2cc(N)ccc2c2ccc(N)cc21 [homidium, 2,7-diamino-9-phenyl-10-ethylphenanthridinium] | – | infrequent | drug depots after administration of free drug ([3]; intramuscular, free drug in aqueous solution): diffuse staining of muscle tissue
CC[n+]1c(-c2ccccc2)c2cc(N/N=N/c3cccc(C(=N)N)c3)ccc2c2ccc(N)cc21.[Cl-] [isometamidium chloride] | – | – | stability in aqueous solution [4]: rapid lability
